We go through 10 compounds from article PMC13429874, “ABHD2 activity is not required for the non-genomic action of progesterone on human sperm” (Human Reproduction (Oxford, England), 2026).

pIC50: −log10 of the molar value. Where two headings read alike, the source gives them in different places.

Assay [1] has as its target T1, full-length human ABHD2 (ABHD2^FL) (Homo sapiens, UniProt P08910).
T1 construct: TEV site-eGFP-8xHis (C, cleaved yes); made in house; host or cells: SF9 insect cells (baculovirus)
T1 sequence (P08910 1-425): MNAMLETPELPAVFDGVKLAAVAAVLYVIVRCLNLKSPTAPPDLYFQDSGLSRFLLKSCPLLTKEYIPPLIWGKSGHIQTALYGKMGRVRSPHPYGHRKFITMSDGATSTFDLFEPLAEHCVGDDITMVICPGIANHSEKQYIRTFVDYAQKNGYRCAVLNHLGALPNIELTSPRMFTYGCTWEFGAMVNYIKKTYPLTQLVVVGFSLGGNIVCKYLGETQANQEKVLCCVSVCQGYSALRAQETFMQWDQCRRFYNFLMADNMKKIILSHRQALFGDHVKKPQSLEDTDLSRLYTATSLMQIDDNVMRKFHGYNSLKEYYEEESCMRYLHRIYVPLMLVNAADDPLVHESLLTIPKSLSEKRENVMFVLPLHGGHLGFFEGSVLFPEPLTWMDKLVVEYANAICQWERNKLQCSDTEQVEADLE
The assay can be described thus: ABHD2^FL enzymatic activity assay with 7-HCA substrate. It is filed as biochemical. The conditions noted are these: for pIC50: Supplementary Table S2, read-out: IC50 measured in ABHD2^FL in the 7-HCA Assay.

In assay [2] the target is T2, ABHD2^L33–E425 (Homo sapiens, UniProt P08910).
T2 construct: expression for ABHD2 amino acids L33–E425, in which a predicted transmembrane domain (amino acids 1–32) is removed; His6-FLAG (N); made in house; host or cells: E. coli BL21(DE3)-R3-pRARE2
T2 sequence (P08910 33-425): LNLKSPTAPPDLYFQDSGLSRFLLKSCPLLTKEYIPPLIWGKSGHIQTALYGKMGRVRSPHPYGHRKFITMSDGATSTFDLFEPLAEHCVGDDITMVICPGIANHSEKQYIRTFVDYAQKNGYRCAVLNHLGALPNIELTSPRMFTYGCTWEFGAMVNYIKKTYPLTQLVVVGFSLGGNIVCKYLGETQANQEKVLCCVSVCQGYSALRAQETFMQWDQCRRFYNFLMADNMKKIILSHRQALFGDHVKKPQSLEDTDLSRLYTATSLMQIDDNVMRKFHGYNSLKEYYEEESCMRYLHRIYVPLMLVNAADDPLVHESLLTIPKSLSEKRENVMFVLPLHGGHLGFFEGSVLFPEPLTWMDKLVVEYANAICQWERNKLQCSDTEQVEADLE
In words: ABHD2^L33-E425 fluorometric enzymatic activity assay with 7-HCA substrate. It counts as biochemical. The note with it: for pIC50: 10 nM enzyme, 10 µM 7-HCA, read-out: IC50 for ABHD2^L33-425, fluorometric assay using 7-HCA.

Assay [3] concerns the target T2, ABHD2^L33–E425. The assay can be described thus: Differential scanning fluorimetry (DSF) with purified ABHD2^L33–E425. It is filed as binding. The note with it: for effect on heat-induced denaturation of ABHD2^L33–E425 (DSF binding): 40 µM steroid; for ΔTm shift for ABHD2^L33-425 determined by DSF: purified protein.
Where [4] appears, read: 7-HCA and RB substrates (Suppl. Fig. S4A,B), weak effects at ≥5 µM.
Where [5] appears, read: 5 µM steroid or triterpenoid, 300 nM 7-HCA.

With `CCCCC/C=C\C/C=C\C/C=C\C/C=C\CCCC(=O)Oc1ccc2ccc(=O)oc2c1` [Compound 7-HCA, 7-hydroxycoumarinyl arachidonate], the Michaelis-Menten constant (Km) came out at 59 µM in assay [1] (read-out: Km of substrate hydrolysis by ABHD2^FL) and 0.28 µM in assay [2] (read-out: Km of substrate hydrolysis by ABHD2^L33–E425). In addition, the “kcat of substrate hydrolysis by ABHD2^L33–E425” value in assay [2] is on record as 2.8 pmol substrate/min/pmol enzyme.

Take `CC(C)CCC[C@@H](C)[C@H]1CC[C@H]2[C@@H]3CC=C4C[C@@H](O)CC[C@]4(C)[C@H]3CC[C@]12C` [cholesterol]: in assay [1] (setting [4]), the “effect on enzymatic activity of purified ABHD2^FL” value (from here on “effect … of purified ABHD2^FL”) is “did not alter”. In assay [2] (setting [5]), the “effect on enzymatic activity of purified ABHD2^L33–E425” value (“effect … of purified ABHD2^L33–E425” below) was “did not alter”. Also, the “effect on heat-induced denaturation of ABHD2^L33–E425 (DSF binding)” value (“effect on heat-induced denaturation” for short) in assay [3] (30 min pre-incubation) is given as “did not affect”.

As to `O=C(N1CCCCC1)N1CCCC[C@H]1Cc1ccccc1` [(S)-1], the pIC50 in assay [2] is 5.52. The “ΔTm shift for ABHD2^L33-425 determined by DSF” value (from here on “ΔTm shift”) in assay [3] is 2.5 °C.

Take `C[C@]12CC[C@H]3[C@@H](CCC4=CC(=O)CC[C@@]43C)[C@@H]1CC[C@@H]2O` [testosterone]: the “effect … of purified ABHD2^FL” value in assay [1] was “did not alter”. The “effect … of purified ABHD2^L33–E425” value in assay [2] is recorded as “did not alter”. Moreover, the “effect on heat-induced denaturation” value in assay [3] (30 min pre-incubation) is “did not affect”.

`C[C@]12CC[C@@H]3c4ccc(O)cc4CC[C@H]3[C@@H]1CC[C@@H]2O` [17β-estradiol]: the “effect … of purified ABHD2^FL” value in assay [1] (setting [4]) is recorded as “did not alter”. In addition, the “effect … of purified ABHD2^L33–E425” value in assay [2] (setting [5]) is recorded as “did not alter”.

Consider “17α-hydroxyprogesterone [reference compound]”, for which the “effect on heat-induced denaturation” value in assay [3] (30 min pre-incubation) is on record as “no binding was observed”.

As for `O=C(N1CCCCC1)N1CCCC[C@H]1c1ccccc1` [(S)-2], the values for the negative-log IC50 (pIC50) in assay [1] and in assay [2] were 5.23 and 5.68, respectively. The “ΔTm shift” value in assay [3] turned out to be 2.7 °C.

For `C[C@]12CCC(=O)C=C1CC[C@@H]1[C@@H]2[C@@H](O)C[C@@]2(C)[C@H]1CC[C@]2(O)C(=O)CO` [hydrocortisone], in assay [1] (setting [4]), the “effect … of purified ABHD2^FL” value is “did not alter”. Also, in assay [2] (setting [5]), the “effect … of purified ABHD2^L33–E425” value is “did not alter”. Further, the “effect on heat-induced denaturation” value in assay [3] (30 min pre-incubation) is recorded as “did not affect”.

For `Cc1ccc(C2CCCCN2C(=O)N2CCCCC2)cc1` (stereo not drawn) [Compound 5], the pIC50 in assay [1] is 5.38; in assay [2] it was 6.03. For the same compound, in assay [3] (10 µM compound, 30 min pre-incubation), the “effect on melting temperature / thermal stability of ABHD2^L33-E425 (DSF), in words” value is “increased melting temperature”. Also, the “ΔTm shift” value in assay [3] came out at 3.3 °C.

With pregnenolone sulfate, the “effect … of purified ABHD2^FL” value in assay [1] is reported as “weak inhibitory action”. Moreover, the “effect … of purified ABHD2^L33–E425” value in assay [2] is “but not on ABHD2^L33–E425”. In addition, the “effect on heat-induced denaturation” value in assay [3] (30 min pre-incubation) is “did not affect”.
